# Biological target: T1, P2Y purinoceptor 1 (Homo sapiens, UniProt P47900)
# Assay: Scintillation Proximity Assay (SPA): A SPA membrane binding assay was used to identify inhibitors of [33P] […] Binding reactions were performed in 384-well OptiPlates (PerkinElmer Life Sciences, Cat #6007299) in a volume of 50 uL containing 15 fmol of P2Y1 receptor (1.7 ug of total protein), 0.3 nM [33P] […] Reactions were allowed to proceed to completion at room temperature for 1 hour followed by centrifugation of the plate for 5 min. About 40 uL of the aqueous soluttion was aspirated. Plates were sealed and the [33P]
# T1 sequence (P47900 whole entry): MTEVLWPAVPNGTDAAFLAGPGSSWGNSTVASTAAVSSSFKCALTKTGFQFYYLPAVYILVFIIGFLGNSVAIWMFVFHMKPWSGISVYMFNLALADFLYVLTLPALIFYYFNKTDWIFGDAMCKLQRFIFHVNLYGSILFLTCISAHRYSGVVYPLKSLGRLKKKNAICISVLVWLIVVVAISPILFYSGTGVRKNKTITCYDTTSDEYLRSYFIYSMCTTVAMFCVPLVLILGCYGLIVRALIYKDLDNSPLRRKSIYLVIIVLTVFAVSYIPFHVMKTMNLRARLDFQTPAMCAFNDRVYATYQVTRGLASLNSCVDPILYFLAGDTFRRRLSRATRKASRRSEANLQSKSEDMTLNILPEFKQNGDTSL
row,Structure (SMILES),Ki [nM]
1,CC(C)(C)CN1CCC2(CC1)CN(c1ccccc1NC(=O)Nc1nc3ccc(Cl)nc3s1)c1c(O)ccc(-c3nc4cc(Cl)ccc4s3)c12,53.7
2,CC(C)(C)CN1CCC2(CC1)CN(c1ccccc1NC(=O)Nc1ccc(OC(F)(F)F)cc1)c1c(O)ccc(-c3nc4cc(Cl)ccc4s3)c12,137
3,CC(C)N1CCC2(CC1)CN(c1ccccc1NC(=O)Nc1ccc(OC(F)(F)F)cc1)c1c(O)ccc(-c3nc4cc(Cl)ccc4s3)c12,24
4,CC(C)(C)CN1CCC2(CC1)CN(c1ccccc1NC(=O)Nc1nc3ccc(F)cc3s1)c1c(O)ccc(-c3nc4cc(Cl)ccc4s3)c12,1.2
5,CC(C)(C)CN1CCC2(CC1)CN(c1ccccc1NC(=O)Nc1ccc(OC(F)(F)F)cc1)c1c(O)ccc(-c3nc4ccc(Cl)cc4s3)c12,73.4
6,CC(C)(C)CN1CCC2(CC1)CN(c1ccccc1NC(=O)Nc1nc3ccc(Cl)nc3s1)c1c(O)ccc(-c3nc4cc(C(F)(F)F)ccc4s3)c12,24.6
7,CC(C)(C)CN1CCC2(CC1)CN(c1ccccc1NC(=O)Nc1csc(Cl)n1)c1c(O)cc(F)c(Cl)c12,19
8,CC(C)(C)CN1CCC2(CC1)CN(c1ccccc1NC(=O)Nc1nc3ccc(Cl)cc3s1)c1c(O)cc(F)c(Cl)c12,23.1
9,CC(C)(C)CN1CCC2(CC1)CN(c1ccccc1NC(=O)Nc1csc(Cl)n1)c1c(O)ccc(-c3nc4cc(Cl)ccc4s3)c12,9.1
10,CC(C)CN1CCC2(CC1)CN(c1ccccc1NC(=O)Nc1ccc(OC(F)(F)F)cc1)c1c(O)ccc(-c3nc4cc(Cl)ccc4s3)c12,9.6
11,CC(C)(C)CN1CCC2(CC1)CN(c1ccccc1NC(=O)Nc1nc3ccc(F)cc3s1)c1c(O)ccc(-c3nc4ccc(Cl)cc4s3)c12,104
12,CC(C)(C)CN1CCC2(CC1)CN(c1ccccc1NC(=O)Nc1csc(Cl)n1)c1c(O)ccc(-c3nc4cccc(Cl)c4s3)c12,18.4

# Biological target: T1, P2Y purinoceptor 1
# Assay: Binding Assay: Binding reactions were performed in WGA FLASHPLATEs (PerkinElmer Life Sciences, Cat # SMP105A) in a volume of 200 uL containing 45 fmol of P2Y1 receptor (5 ug of total protein), 0.5 nM [33P] […] Reactions were allowed to proceed to completion at room temperature for 1 hour and then the aqueous solution aspirated.
row,Structure (SMILES),Ki [nM]
1,CC(C)(C)CN1CCC2(CC1)CN(c1ccccc1NC(=O)Nc1ccc(OC(F)(F)F)cc1)c1c(O)cc(F)cc12,9.1

# From ChEMBL document CHEMBL3886909, “7-hydroxy-spiropipiperidine indolinyl antagonists of P2Y1 receptor” (2016)
